The nature of data set [1]: Diuretic activity, acute sodium loaded mouse screening test. In kind it is in vivo, male mice. The settings on record: 50 mg/kg oral in 1% saline; for Cl^- / K^+ / Na^+: urine. The method, then: The diuretic activity of the compounds of this invention was assayed by the diuresis screening test referred to as "acute sodium loaded mouse". This test was carried out by the following method.
The acute sodium loaded mouse screening test was carried out by using a 10-membered group of male mice (each weighing 18 to 24 g). Test compounds were incorporated in 1% saline (NaCl) solution and orally administered in a volume of 10 ml/kg. The mice were placed in metabolic cages. Each treated group consisted of 10-members. Five members were placed in one cage. Tests were conducted by oral administrations of (A) 1% saline (NaCl) solution to the control group and (B) 1% saline (NaCl) solution containing a test compound according to this invention.
The determination was carried out for sodium, potassium, and chlorine in each pooled urine sample. The determination of sodium and potassium was carried out by flame photometer. Chlorine was determined by chloride analysis apparatus. The analytical values of sodium, potassium, and chlorine were shown with an average mg equivalent (m Eq)/Kg/5 hours, and the diuretic activity was shown with an average urine volume (ml)/Kg/5 hours.

The next data set has as its system Leukemia L1210. Nature of the data set: Activity against Leukemia L1210, intraperitoneal, increase in life span of mice. Format: in vivo, female mice (BDF1 family). As to conditions: for ED (maximum ILS) / ED30: Mus musculus, L1210, ip, ip once a day for 5 successive days; for ED (maximum ILS): daily dosage giving maximum increase of life span, read-out: O.D. (optimum dosage); for ED30: daily dosage increasing average survival days by 30%, read-out: ILS30; for Survivors after 60 days / Max. ILS % / Therapeutic ratio TR: ip; for Survivors after 60 days: 6-membered group; for Max. ILS %: 60-day observation, versus control; for Therapeutic ratio TR: O.D./ILS30. In short, it runs like this: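 Female BDF1 mice (20 to 23 g, 6 per group) implanted ip with 1×10^5 L1210 cells; test compound given ip or orally once daily for 5 days starting 24 h later. ILS% from mean survival days vs untreated controls over 60 days; T.R. = O.D./ILS30.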

A further data set relates to Ehrlich acites carcinoma. Nature of the data set: Growth-inhibiting effect against Ehrlich acites carcinoma. Format: in vivo, male mice. The settings on record: Mus musculus, Ehrlich, 120 h, 5 days; for response vs control in vivo at 25 mg/kg: 25 mg/kg/day ip; for response vs control in vivo at 100 mg/kg: 100 mg/kg/day ip. An outline of the steps:
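Male mice (groups of 6) implanted intraperitoneally with 1×10^7 Ehrlich ascites cells; compounds in 1% Nikkol HCO-60 given i.p. once daily for 5 days starting 24 hrs post-implantation. Total packed cell volume measured at day 7; T/C% vs untreated group, scored - (100-66), + (65-41), ++ (40-11), +++ (10-0).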

The nature of data set [2]: Acute toxicity (LD50, Behrens-Karber method). Format: in vivo, ICR mice. As to conditions: mouse, in vivo, ip, mortality during 30 days. The method, then: Test compounds, dissolved or suspended in 0.5% aqueous CMC, were each intraperitoneally administered to ICR mice in a dose of 0.1 ml per 10 g body weight. LD50 (mg/kg) value of each test compound was calculated from the mortality of mice during 30 days by the Behrens-Karber method.

Where two headings read alike, the source gives them in different places. A value given as a limit tells only on which side of the number the result lay.

Consider `CCOCCCN(C[C@H]1O[C@H](OC(C)CC)[C@H](O)[C@@H](O)[C@@H]1O)C(=O)N(CCCl)N=O` (stereo partly drawn) [Compound 19, 3-(3-ethoxy-n-propyl)-3-(sec-butyl α-D-glucopyranose-6-yl)-1-(2-chloroethyl)-1-nitrosourea], for which, in data set [1], the Urine volume was determined as 9.1 ml/kg/5 hrs, the “Cl^-” value is listed as 0.7 mEq/kg/5 hrs, the “K^+” value turned out to be 0.8 mEq/kg/5 hrs and the “Na^+” value is recorded as 0.6 mEq/kg/5 hrs. Moreover, in the data set with Leukemia L1210, the ED (maximum ILS) was 180 mg/kg, the ED30 was determined as 3.33 mg/kg, the “Survivors after 60 days” value is reported as 6/6 and the “Max. ILS %” value is on record as over 700%. The “Therapeutic ratio TR” value in the data set with Leukemia L1210 was found to be 54.0. In the data set on Ehrlich acites carcinoma (read-out: Activity), the response vs control in vivo at 25 mg/kg is 0 to 10% and the response vs control in vivo at 100 mg/kg was in the range of 0 to 10%. In the data set on Ehrlich acites carcinoma (read-out: T/C %), the response vs control in vivo at 25 mg/kg turned out to be 0% and the response vs control in vivo at 100 mg/kg came to 0%. For the same compound, the median lethal dose (LD50) at 720 h in data set [2] came to 560 mg/kg.
Turning to `COCCN(C[C@H]1O[C@H](OC(C)COC)[C@H](O)[C@@H](O)[C@@H]1O)C(=O)N(CCCl)N=O` (stereo partly drawn) [Compound 35, 3-(2-methoxyethyl)-3-(1-methyl-2-methoxyethyl α-D-glucopyranose-6-yl)-1-(2-chloroethyl)-1-nitrosourea], in data set [1], the Urine volume is 8.8 ml/kg/5 hrs, the “Cl^-” value came to 0.6 mEq/kg/5 hrs, the “K^+” value is given as 0.9 mEq/kg/5 hrs and the “Na^+” value was 0.5 mEq/kg/5 hrs. Besides, in the data set on Leukemia L1210, the ED (maximum ILS) came out at 150 mg/kg, the ED30 came out at 2.23 mg/kg, the “Survivors after 60 days” value is given as 6/6 and the “Max. ILS %” value is over 700%. Moreover, the “Therapeutic ratio TR” value in the data set on Leukemia L1210 is reported as 67.3. Also, in the data set on Ehrlich acites carcinoma (read-out: Activity), the response vs control in vivo at 25 mg/kg was 0 to 10% and the response vs control in vivo at 100 mg/kg lay in the range of 0 to 10%. In addition, in the data set with Ehrlich acites carcinoma (read-out: T/C %), the response vs control in vivo at 25 mg/kg turned out to be 0% and the response vs control in vivo at 100 mg/kg was found to be 0%. The LD50 at 720 h in data set [2] is 470 mg/kg.
Regarding `CCCCO[C@H]1O[C@H](CO)[C@@H](O)[C@H](O)[C@H]1N(CCCOC)C(=O)N(CCCl)N=O` [Compound 57, 3-(3-methoxy-n-propyl)-3-(n-butyl α-D-glucopyranose-2-yl)-1-(2-chloroethyl)-1-nitrosourea], in data set [1], the Urine volume turned out to be 9.7 ml/kg/5 hrs, the “Cl^-” value is on record as 0.8 mEq/kg/5 hrs, the “K^+” value amounted to 0.9 mEq/kg/5 hrs and the “Na^+” value was 0.7 mEq/kg/5 hrs. In addition, in the data set with Leukemia L1210, the ED (maximum ILS) was 190 mg/kg, the ED30 came out at 5.5 mg/kg, the “Survivors after 60 days” value is 3/6 and the “Max. ILS %” value is reported as over 355%. Besides, in the data set with Leukemia L1210, the “Therapeutic ratio TR” value came to 34.5. Besides, in the data set with Ehrlich acites carcinoma (read-out: Activity), the response vs control in vivo at 25 mg/kg was in the range of 0 to 10% and the response vs control in vivo at 100 mg/kg fell in the range of 0 to 10%. In the data set on Ehrlich acites carcinoma (read-out: T/C %), the response vs control in vivo at 25 mg/kg worked out at 0% and the response vs control in vivo at 100 mg/kg came out at 0%. This compound also registered an LD50 at 720 h in data set [2] of 570 mg/kg.
On to `CCOCCCN(C(=O)N(CCCl)N=O)C1C(OC2CCCCC2)OC(CO)C(O)C1O` [Compound 65, 3-(3-ethoxy-n-propyl)-3-(cyclohexyl α-D-glucopyranose-2-yl)-1-(2-chloroethyl)-1-nitrosourea], for which, in data set [1], the Urine volume worked out at 8.8 ml/kg/5 hrs, the “Cl^-” value is given as 0.7 mEq/kg/5 hrs, the “K^+” value amounted to 0.8 mEq/kg/5 hrs and the “Na^+” value is 0.6 mEq/kg/5 hrs. In the data set on Leukemia L1210, the ED (maximum ILS) worked out at 200 mg/kg, the ED30 worked out at 4.44 mg/kg, the “Survivors after 60 days” value was 5/6 and the “Max. ILS %” value is over 620%. The “Therapeutic ratio TR” value in the data set on Leukemia L1210 is 45.0. In addition, in the data set with Ehrlich acites carcinoma (read-out: Activity), the response vs control in vivo at 25 mg/kg is 0 to 10% and the response vs control in vivo at 100 mg/kg fell in the range of 0 to 10%. In addition, in the data set with Ehrlich acites carcinoma (read-out: T/C %), the response vs control in vivo at 25 mg/kg came to 0% and the response vs control in vivo at 100 mg/kg turned out to be 0%. In data set [2], this compound registered an LD50 at 720 h of 655 mg/kg.
In the case of `COCCCN(C(=O)N(CCCl)N=O)C1C(OCC(C)C)OC(CO)C(O)C1O` [Compound 74, 3-(3-methoxy-n-propyl)-3-(isobutyl α-D-glucopyranose-2-yl)-1-(2-chloroethyl)-1-nitrosourea], in data set [1], the Urine volume is 9.4 ml/kg/5 hrs, the “Cl^-” value came to 0.7 mEq/kg/5 hrs, the “K^+” value was found to be 0.8 mEq/kg/5 hrs and the “Na^+” value is reported as 0.6 mEq/kg/5 hrs. Also, in the data set with Leukemia L1210, the ED (maximum ILS) turned out to be 170 mg/kg, the ED30 worked out at 3.92 mg/kg, the “Survivors after 60 days” value was 6/6 and the “Max. ILS %” value was over 700%. Further, in the data set with Leukemia L1210, the “Therapeutic ratio TR” value amounted to 43.2. For the same compound, in the data set on Ehrlich acites carcinoma (read-out: Activity), the response vs control in vivo at 25 mg/kg lay in the range of 0 to 10% and the response vs control in vivo at 100 mg/kg lay within 0 to 10%. Also, in the data set with Ehrlich acites carcinoma (read-out: T/C %), the response vs control in vivo at 25 mg/kg came out at 0% and the response vs control in vivo at 100 mg/kg came to 0%. This compound also returned a 50% lethal dose (LD50) at 720 h in data set [2] of 560 mg/kg.
On to `COC(C)CN(C(=O)N(CCCl)N=O)C1C(O)C(CO)OC(OC2CCCCC2)C1O` [Compound 86, 3-(2-methoxy-n-propyl)-3-(cyclohexyl α-D-glucopyranose-3-yl)-1-(2-chloroethyl)-1-nitrosourea], for which, in data set [1], the Urine volume is given as 10.2 ml/kg/5 hrs, the “Cl^-” value was 0.9 mEq/kg/5 hrs, the “K^+” value is 1.0 mEq/kg/5 hrs and the “Na^+” value is given as 0.7 mEq/kg/5 hrs. Further, in the data set on Leukemia L1210, the ED (maximum ILS) worked out at 200 mg/kg, the ED30 is 4.9 mg/kg, the “Survivors after 60 days” value was 4/6 and the “Max. ILS %” value was over 430%. Also, in the data set with Leukemia L1210, the “Therapeutic ratio TR” value is 40.8. Besides, in the data set with Ehrlich acites carcinoma (read-out: Activity), the response vs control in vivo at 25 mg/kg was in the range of 0 to 10% and the response vs control in vivo at 100 mg/kg lay within 0 to 10%. Besides, in the data set with Ehrlich acites carcinoma (read-out: T/C %), the response vs control in vivo at 25 mg/kg is 0% and the response vs control in vivo at 100 mg/kg amounted to 0%. In addition, in data set [2], the LD50 at 720 h turned out to be 695 mg/kg.
On to `COCCN(C(=O)N(CCCl)N=O)C1C(CO)OC(OCC(C)C)C(O)C1O` [Compound 93, 3-(2-methoxyethyl)-3-(isobutyl α-D-glucopyranose-4-yl)-1-(2-chloroethyl)-1-nitrosourea], for which, in data set [1], the Urine volume turned out to be 9.6 ml/kg/5 hrs, the “Cl^-” value is 0.7 mEq/kg/5 hrs, the “K^+” value is given as 0.9 mEq/kg/5 hrs and the “Na^+” value is on record as 0.6 mEq/kg/5 hrs. For the same compound, in the data set on Leukemia L1210, the ED (maximum ILS) is 160 mg/kg, the ED30 was 4.49 mg/kg, the “Survivors after 60 days” value is reported as 3/6 and the “Max. ILS %” value is listed as over 370%. Also, the “Therapeutic ratio TR” value with Leukemia L1210 is 35.6. Further, in the data set on Ehrlich acites carcinoma (read-out: Activity), the response vs control in vivo at 25 mg/kg is 0 to 10% and the response vs control in vivo at 100 mg/kg lay within 0 to 10%. In addition, in the data set with Ehrlich acites carcinoma (read-out: T/C %), the response vs control in vivo at 25 mg/kg is 0% and the response vs control in vivo at 100 mg/kg stood at 0%. The LD50 at 720 h in data set [2] was 530 mg/kg.
For `COCC(C)N(C[C@H]1O[C@H](OCC(C)C)[C@H](O)[C@@H](O)[C@H]1O)C(=O)N(CCCl)N=O` (stereo partly drawn) [Compound 110, 3-(1-methyl-2-methoxyethyl)-3-(isobutyl α-D-galactopyranose-6-yl)-1-(2-chloroethyl)-1-nitrosourea], in data set [1], the Urine volume came out at 8.8 ml/kg/5 hrs, the “Cl^-” value was found to be 0.6 mEq/kg/5 hrs, the “K^+” value turned out to be 0.8 mEq/kg/5 hrs and the “Na^+” value is 0.5 mEq/kg/5 hrs. Moreover, in the data set on Leukemia L1210, the ED (maximum ILS) was 200 mg/kg, the ED30 worked out at 3.69 mg/kg, the “Survivors after 60 days” value is given as 4/6 and the “Max. ILS %” value is listed as over 435%. Further, the “Therapeutic ratio TR” value with Leukemia L1210 amounted to 54.2. Also, in the data set with Ehrlich acites carcinoma (read-out: Activity), the response vs control in vivo at 25 mg/kg is 0 to 10% and the response vs control in vivo at 100 mg/kg lay within 0 to 10%. Moreover, in the data set with Ehrlich acites carcinoma (read-out: T/C %), the response vs control in vivo at 25 mg/kg is 0% and the response vs control in vivo at 100 mg/kg came out at 0%. For the same compound, the median lethal dose (LD50) at 720 h in data set [2] was found to be 680 mg/kg.

The values above are taken from patent US4593090A, “Novel nitrosourea compounds, method for preparing same, and pharmaceutical composition containing same” (Gogo Kimura, priority 1981, dated 1986).
